{"source": "a melting point compilation (Tetko et al.; mined from patent text by program, amines drawn as free bases though some values may be those of a salt)"}
{"units": {"melting point": "°C"}}
{"smiles": "COc1cc2ccc3c4cc(OC)c(OC)cc4ncc3c2cc1OC", "melting point": "122 to 124"}
{"smiles": "NCCCn1cnc(-c2ccc(F)cc2)c1-c1ccncc1", "melting point": "81 to 82"}
{"smiles": "CCOc1nc(Cl)nc2cscc12", "melting point": "136 to 140"}
{"smiles": "Cc1ccc(C2OCCn3ccc(=O)c(O)c32)cc1", "note": "(configuration not stated)", "melting point": "210 to 218"}
{"smiles": "CC(C)Oc1c(C(=O)O)sc2c1CSCC2", "melting point": "148 to 149"}
{"smiles": "O=C1CCCCC1C(C[N+](=O)[O-])c1ccc(F)cc1", "note": "(racemic)", "melting point": "84 to 85"}
{"smiles": "CCCCCCCCCCCCCCC(=O)Oc1ccc2cc(C(=N)N)ccc2c1", "melting point": 153}
{"smiles": "CC(=O)N1CCN(c2ccc(F)cc2O)CC1", "melting point": "183 to 185"}
{"smiles": "Cc1cccc(C(=O)NC(Nc2c(Nc3cccnc3)c(=O)c2=O)C(C)(C)C)c1", "note": "(configuration not stated)", "melting point": "236 to 237"}
{"smiles": "CCCCCCCc1ncc(CO)[nH]1", "melting point": "82 to 84"}
{"smiles": "COc1ccc(CN2C=CC=C3C2=Nc2cc(C(F)(F)F)ccc2S(=O)(=O)N3C)cc1", "melting point": "142 to 143"}
{"smiles": "O=C1N(C(c2ccccc2)c2ccccc2)c2cc(F)ccc2C12COc1cc3c(cc12)CCO3", "note": "(configuration not stated)", "melting point": "194 to 196"}
{"smiles": "O=C(CN1C(=O)C(c2ccccc2)c2ccccc21)NCc1ccccc1", "note": "(configuration not stated)", "melting point": "182 to 183"}
{"smiles": "Cc1c(-c2ccccc2)oc2c(C=CC(=O)O)cccc2c1=O", "melting point": "226 to 229"}
{"smiles": "O=C(NCCO)c1ccc(CCCc2ccccc2CCc2ccccc2)cc1", "melting point": "104 to 106"}
{"smiles": "O=C(c1ccccc1)C(O)c1ccc(F)cc1", "note": "(configuration not stated)", "melting point": "108 to 109"}
{"smiles": "Cc1nc2sccn2c1C1=NNC(=O)CN1", "melting point": "270 to 273"}
{"smiles": "Cc1cc(Cl)n(-c2ccc(Cl)nn2)n1", "melting point": "123 to 126"}
{"smiles": "CC(C)=CCN(CCC12CC3CC(CC(C3)C1)C2)C(=O)NCCCc1ccncc1", "melting point": "93 to 96"}
{"smiles": "Cc1c(C(=O)Cl)ccc2c1C(=O)N(C)S2(=O)=O", "melting point": "149 to 150"}
{"smiles": "COCCc1ccc(OCC(O)CNC2CCc3ccccc3C2)cc1", "note": "(configuration not stated)", "melting point": "95 to 97"}
{"smiles": "COC1COC(c2ccccc2)OC1", "note": "(configuration not stated)", "melting point": 51}
{"smiles": "COC12CC(C)(C)C(O)C(C=C1C)O2", "note": "(configuration not stated)", "melting point": "82.5 to 83.5"}
{"smiles": "CC(C)CCCC(C)C1CCC2C3CC=C4CC(Oc5ccc(N)cc5N)CCC4(C)C3CCC12C", "note": "(configuration not stated)", "melting point": "159 to 163"}
{"smiles": "CCn1ncc2c(NCC3CCCCC3)c3cc(OCCN4CCOCC4)ccc3nc21", "melting point": "176 to 178"}
{"smiles": "CCn1cc(C(=O)O)c(=O)c2cc(N)c(-c3cc(C)nc(C)c3)cc21", "melting point": "288 to 290"}
{"smiles": "CC(CN1C(=O)C2(COc3cc4c(cc32)CCO4)c2ccccc21)OCc1ccccc1", "note": "(configuration not stated)", "melting point": "45 to 47"}
{"smiles": "Cn1c(NCCOS(C)(=O)=O)cc(=O)n(C)c1=O", "melting point": "169 to 170"}
{"smiles": "COc1cc2c(cc1OC)N(C(=O)C=Cc1ccccc1)CC(N(C)C)C2", "note": "(configuration not stated)", "melting point": "97 to 98"}
{"smiles": "O=C(O)c1cc(Oc2c(Br)cc(Br)cc2Br)ccc1[N+](=O)[O-]", "melting point": "162 to 170"}
{"smiles": "Cc1cc(O)c([N+](=O)[O-])c(=O)n1CC(=O)OCc1ccccc1", "melting point": "146 to 147"}
{"smiles": "CC(C)(C)OC(=O)C[C@H](NC(=O)c1cccc(NC(=O)C(Cc2ccc(C(=N)N)cc2)NC(=O)OC(C)(C)C)c1)C(=O)N[C@@H](Cc1cccc2ccccc12)C(=O)O", "note": "(mixture of isomers)", "melting point": "263 to 265"}
{"smiles": "CCOC(=O)C1=C(C)N(C)C(C)=C(C(=O)OCC)C1c1ccccc1/C=C/C(=O)OC(C)(C)C", "melting point": "149 to 151"}
{"smiles": "CC1Sc2ccccc2N1C(=S)Nc1cccc(Cl)c1", "note": "(configuration not stated)", "melting point": "120 to 122"}
{"smiles": "CCn1nc(OCCCc2ccc(OC(C)C)cc2Oc2ncc(C(F)(F)F)cc2Cl)cc1CCC(=O)O", "melting point": "73 to 74"}
{"smiles": "COCC(=S)Nc1c(Cl)c(Cl)cc2nc(OC)c(OC)nc12", "melting point": "198 to 200"}
{"smiles": "Cc1ccc(Cl)cc1-c1cccc2c1OC(CN)C2", "note": "(configuration not stated)", "melting point": "146 to 150"}
{"smiles": "Cc1nc2ccc3c(c2o1)C(CCNC(=O)C1CC1)CC3", "note": "(configuration not stated)", "melting point": "134 to 137"}
{"smiles": "CCCC1=C(C(=O)OCC)C(c2cccc(C#N)c2OC)c2c[nH]nc2N1", "note": "(configuration not stated)", "melting point": "220 to 222"}
{"smiles": "O=S(=O)(c1ccccc1)N1CCN(C(c2ccccc2)c2ccc(Cl)cc2)CC1", "note": "(single isomer, unassigned; (-))", "melting point": "116 to 118"}
{"smiles": "CC1=C(Nc2ccc(C3=NNC(=O)CC3C)cc2)CCC1=O", "note": "(configuration not stated)", "melting point": "285 to 286"}
{"smiles": "Cc1nn(C(=O)NCC2CC2(Cl)Cl)c(=O)n1N", "note": "(configuration not stated)", "melting point": 149}
{"smiles": "O=C1c2ccccc2C(=O)N1OCCOCc1ccccc1F", "melting point": "62 to 64"}
{"smiles": "Nc1nc(N)c2c(n1)NCC(CCc1ccc(C(=O)N[C@@H](CCC(=O)O)C(=O)O)cc1)C2", "note": "(some centres not stated)", "melting point": "> 250"}
{"smiles": "CCOC(=O)c1cnn(-c2ccc(OC(F)(F)F)cc2)c1", "melting point": "114 to 116"}
{"smiles": "NC(=O)C1c2ccccc2-c2ccccc21", "melting point": 250}
{"smiles": "COc1cc2oc(=O)c(C)c(C)c2cc1OCCN1CCN(c2cccc3[nH]ccc23)CC1", "melting point": "201 to 202"}
{"smiles": "CC1(C)Nc2cc(F)c(F)cc2-n2cccc21", "melting point": "123 to 125"}
{"smiles": "CC(C)(C)c1cc(-c2nc3n(c2CN2CCOCC2)CCS3)cc(C(C)(C)C)c1O", "melting point": "231 to 233"}
{"smiles": "COc1cnn(CN(C(=O)CCl)c2c(C)cccc2C)c1", "melting point": "115 to 116"}
{"smiles": "CC(C)(C)c1ccc(OCC(=O)NCc2ccc(NS(C)(=O)=O)c(O)c2)cc1", "melting point": 112}
{"smiles": "CCOC(=O)CNC(=O)CC(=O)CCl", "melting point": "96 to 97"}
{"smiles": "C=CCOC1C(NC(C)=O)C(OCc2ccccc2)OC(COCc2ccccc2)C1OCc1ccccc1", "note": "(configuration not stated)", "melting point": 138}
{"smiles": "CCOc1c(F)cc2[nH]c(=O)c(=O)[nH]c2c1[N+](=O)[O-]", "melting point": "293 to 295"}
{"smiles": "COc1ccc(CC2(C)CN(C(c3ccccc3)c3ccccc3)CCN2C)cc1OC", "note": "(configuration not stated)", "melting point": 102}
{"smiles": "O=C(NC(NC(=S)Nc1cccnc1)C(F)(F)F)c1ccc(Cl)cc1", "note": "(configuration not stated)", "melting point": "147 to 149"}
{"smiles": "C=CCC(c1ccc(C(O)(C(F)(F)F)C(F)(F)F)cc1)S(=O)(=O)c1ccccc1", "note": "(configuration not stated)", "melting point": 148}
{"smiles": "COc1ccc(-c2nc(Br)c(C(F)(F)F)[nH]2)cc1", "melting point": "177 to 178"}
{"smiles": "O=C1C=CC2=CN=C(c3ccco3)N3CCC(=C23)N1", "melting point": "278 to 279"}
{"smiles": "CCc1nc2sc3ccccc3n2c1CO", "melting point": "180 to 182"}
{"smiles": "CC(C)c1cc(Cl)cc2c1OC(C(F)(F)F)C(C(=O)O)=C2", "note": "(configuration not stated)", "melting point": "185 to 189"}
{"smiles": "Nc1cc(=O)nc(Nc2ccccc2)n1-c1ccccc1", "melting point": "202 to 206"}
{"smiles": "COC(=O)c1cc(C(=O)NCC(=O)O)cc([N+](=O)[O-])c1", "melting point": "142 to 143"}
{"smiles": "Cc1cn(CC(O)(CC(C)(C)c2cccc3c2OCC3)C(F)(F)F)c(CO)c(C)c1=O", "note": "(configuration not stated)", "melting point": "160 to 162"}
{"smiles": "COC(=O)C(CCn1c(C(=O)c2ccccc2)cc(Br)c1Br)C(=O)OC", "melting point": "96 to 96.5"}
{"smiles": "Cc1cc(O)c2c(c1)C(C)(C)CC2(C)C", "melting point": 66}
{"smiles": "C[C@@H](S[C@H]1CO[C@H](/C=C/c2ccc(C(F)(F)F)cc2)OC1)[C@](O)(Cn1cncn1)c1ccc(F)cc1F", "melting point": "73 to 75"}
{"smiles": "COCS(=O)(=O)c1ccc(C=C(C)c2ccc3c(c2)C(C)(C)CCC3(C)C)cc1", "melting point": "154 to 156"}
{"smiles": "Cc1cc(C#CC2(O)CN3CCC2CC3)cc(C)c1OCCOc1ccccc1", "note": "(configuration not stated)", "melting point": "141 to 142"}
{"smiles": "O=C1C=CC(=O)c2nccnc21", "melting point": "172 to 173"}
{"smiles": "CCC(CC)O[C@@H]1C=C(C(=O)OC)C[C@H](CC(O)CO)[C@H]1NC(C)=O", "note": "(some centres not stated)", "melting point": "125 to 126"}
{"smiles": "C=Cc1cc(Cl)cc2c1OC(C(F)(F)F)C(C(=O)O)=C2", "note": "(configuration not stated)", "melting point": "183 to 186"}
